# Measurements from patent US20100240767A1, “Melanogenesis inhibitiuon by 3,5-dimethoxy-4'-hydroxystilbenes and cosmeceutical compositions thereof” (priority 2009, published 2010).
# Legend:
# [1] = target: mushroom tyrosinase; experiment: mushroom tyrosinase inhibitory activity; type: biochemical; conditions: 400 U/ml mushroom tyrosinase, 3.53 mM L-tyrosine substrate, absorbance 492 nm at 10th minute
# Description: The mushroom tyrosinase inhibitory activity of 3,5-dimethoxy-4′-hydroxystilbene was studied in a micro plate by incubating varying concentrations of the sample with 400 U/ml of mushroom tyrosinase and then by the addition of 3.53 mM of L-tyrosine substrate. The absorbance at the 10th minute of the reaction was read in a Fluostar Optima micro plate reader at 492 nm.
# [2] = system: B16F1 mouse melanoma cell line; experiment: melanogenesis inhibition in MSH-induced B16F1 mouse melanoma cell line; type: cell-based
# Description: 3,5-dimethoxy-4′-hydroxystilbene was studied for melanogenesis inhibition in B16F1 mouse melanoma cell line. B16F1 cells were induced with 0.5 nM MSH (Melanocyte stimulating hormone) and then treated with varying concentrations of the sample. Sample treatment was given thrice after every 72 hrs. On the 9th day of treatment, the melanin from the cells was extracted with 1N NaOH and the absorbance was read at 405 nm in a Fluostar Optima micro plate reader.
# [3] = system: Swiss 3T3 mouse fibroblast cells; experiment: UV protection in Swiss 3T3 mouse fibroblast cells (SRB viability); type: cell-based; conditions: UV A (0.5 J/cm2) and UV B (0.05 J/cm2), 72 hours incubation, SRB staining
# Description: 3,5-dimethoxy-4′-hydroxystilbene was studied for UV protection in Swiss 3T3 mouse fibroblast cells. Swiss 3T3 fibroblast cell monolayers were exposed to UV A (0.5 J/cm2) and UV B (0.05 J/cm2) in the presence and absence of sample treatment at varying concentrations. After UV exposure, the cells were incubated in CO2 incubator for 72 hours and the cell viability was determined by SRB (Sulphorhodomine B) dye staining. The UV protection is determined as the enhanced percentage of viable sample treated cells as compared to the untreated cells after UV exposure.
structure (smiles),measurement,setting,value
"COc1cc(/C=C/c2ccc(O)cc2)cc(OC)c1 [3,5-dimethoxy-4′-hydroxystilbene]",inhibition of mushroom tyrosinase IC50,[1],7 µg/mL
same,IC50,"[2]; Mus musculus, B16-F1, B16F1 cells induced with 0.5 nM MSH, treated thrice every 72 hrs, melanin read at 405 nm on 9th day",0.5 µg/mL
same,melanogenesis inhibition potential relative to Glabridin,"[2]; times higher potential than Glabridin, B16F1 cells",about 6 times
same,UV protection (enhanced percentage of viable treated cells as compared to the untreated cells after UV exposure),[3],32%
